Results taken from ChEMBL document CHEMBL4715697, “Synthesis and biological activity of benzamide DNA minor groove binders” (2016).

What was measured:
Assay type in all cases: functional
HL-60(TB) = assay: Growth inhibition of human HL-60(TB) cells assessed as cell growth at 0.01 uM incubated for 48 hrs by sulforhodamine B assay relative to control; settings: read-out: Activity
RPMI-8226 = assay: Growth inhibition of human RPMI-8226 cells assessed as cell growth at 0.01 uM incubated for 48 hrs by sulforhodamine B assay relative to control; settings: read-out: Activity
SNB-75 [1] = assay: Growth inhibition of human SNB-75 cells assessed as cell growth at 0.01 uM incubated for 48 hrs by sulforhodamine B assay relative to control; settings: read-out: Activity
LOX IMVI = assay: Growth inhibition of human LOX IMVI cells assessed as cell growth at 0.01 uM incubated for 48 hrs by sulforhodamine B assay relative to control; settings: read-out: Activity
M14 = assay: Growth inhibition of human M14 cells assessed as cell growth at 0.01 uM incubated for 48 hrs by sulforhodamine B assay relative to control; settings: read-out: Activity
OVCAR-3 [2] = assay: Growth inhibition of human OVCAR-3 cells assessed as cell growth at 0.01 uM incubated for 48 hrs by sulforhodamine B assay relative to control; settings: read-out: Activity
786-0 = assay: Growth inhibition of human 786-0 cells assessed as cell growth at 0.01 uM incubated for 48 hrs by sulforhodamine B assay relative to control; settings: read-out: Activity
A498 = assay: Growth inhibition of human A498 cells assessed as cell growth at 0.01 uM incubated for 48 hrs by sulforhodamine B assay relative to control; settings: read-out: Activity
ACHN = assay: Growth inhibition of human ACHN cells assessed as cell growth at 0.01 uM incubated for 48 hrs by sulforhodamine B assay relative to control; settings: read-out: Activity
RXF 393 [3] = assay: Growth inhibition of human RXF 393 cells assessed as cell growth at 0.01 uM incubated for 48 hrs by sulforhodamine B assay relative to control; settings: read-out: Activity
K562 = assay: Growth inhibition of human K562 cells assessed as cell growth at 0.1 uM incubated for 48 hrs by sulforhodamine B assay relative to control; settings: read-out: Activity
NCI-H460 [4] = assay: Growth inhibition of human NCI-H460 cells assessed as cell growth at 0.1 uM incubated for 48 hrs by sulforhodamine B assay relative to control; settings: read-out: Activity
SNB-75 [5] = assay: Growth inhibition of human SNB-75 cells assessed as cell growth at 0.1 uM incubated for 48 hrs by sulforhodamine B assay relative to control; settings: read-out: Activity
SK-MEL-28 = assay: Growth inhibition of human SK-MEL-28 cells assessed as cell growth at 0.1 uM incubated for 48 hrs by sulforhodamine B assay relative to control; settings: read-out: Activity
UACC-62 [6] = assay: Growth inhibition of human UACC-62 cells assessed as cell growth at 0.1 uM incubated for 48 hrs by sulforhodamine B assay relative to control; settings: read-out: Activity
DU-145 = assay: Growth inhibition of human DU-145 cells assessed as cell growth at 0.1 uM incubated for 48 hrs by sulforhodamine B assay relative to control; settings: read-out: Activity
A549 = assay: Growth inhibition of human A549/ATCC cells assessed as cell growth at 1 uM incubated for 48 hrs by sulforhodamine B assay relative to control; settings: read-out: Activity
UACC-62 [7] = assay: Growth inhibition of human UACC-62 cells assessed as cell growth at 1 uM incubated for 48 hrs by sulforhodamine B assay relative to control; settings: read-out: Activity
OVCAR-8 [8] = assay: Growth inhibition of human OVCAR-8 cells assessed as cell growth at 1 uM incubated for 48 hrs by sulforhodamine B assay relative to control; settings: read-out: Activity
UO-31 = assay: Growth inhibition of human UO-31 cells assessed as cell growth at 1 uM incubated for 48 hrs by sulforhodamine B assay relative to control; settings: read-out: Activity
PC-3 = assay: Growth inhibition of human PC-3 cells assessed as cell growth at 1 uM incubated for 48 hrs by sulforhodamine B assay relative to control; settings: read-out: Activity
NCI-H460 [9] = assay: Growth inhibition of human NCI-H460 cells assessed as cell growth at 100 uM incubated for 48 hrs by sulforhodamine B assay relative to control; settings: read-out: Activity
SK-MEL-5 = assay: Growth inhibition of human SK-MEL-5 cells assessed as cell growth at 100 uM incubated for 48 hrs by sulforhodamine B assay relative to control; settings: read-out: Activity
UACC-257 = assay: Growth inhibition of human UACC-257 cells assessed as cell growth at 100 uM incubated for 48 hrs by sulforhodamine B assay relative to control; settings: read-out: Activity
OVCAR-8 [10] = assay: Growth inhibition of human OVCAR-8 cells assessed as cell growth at 100 uM incubated for 48 hrs by sulforhodamine B assay relative to control; settings: read-out: Activity
TK-10 = assay: Growth inhibition of human TK-10 cells assessed as cell growth at 100 uM incubated for 48 hrs by sulforhodamine B assay relative to control; settings: read-out: Activity
MCF7 = assay: Growth inhibition of human MCF7 cells assessed as cell growth at 100 uM incubated for 48 hrs by sulforhodamine B assay relative to control; settings: read-out: Activity
Hs-578T [11] = assay: Growth inhibition of human Hs-578T cells assessed as cell growth at 100 uM incubated for 48 hrs by sulforhodamine B assay relative to control; settings: read-out: Activity
SR = assay: Growth inhibition of human SR cells incubated for 48 hrs by sulforhodamine B assay
NCI-H522 = assay: Growth inhibition of human NCI-H522 cells incubated for 48 hrs by sulforhodamine B assay
OVCAR-3 [12] = assay: Growth inhibition of human OVCAR-3 cells incubated for 48 hrs by sulforhodamine B assay
RXF 393 [13] = assay: Growth inhibition of human RXF 393 cells incubated for 48 hrs by sulforhodamine B assay
Hs-578T [14] = assay: Growth inhibition of human Hs-578T cells incubated for 48 hrs by sulforhodamine B assay
BT-549 = assay: Growth inhibition of human BT-549 cells incubated for 48 hrs by sulforhodamine B assay
T47D = assay: Growth inhibition of human T47D cells incubated for 48 hrs by sulforhodamine B assay
[15] = read-out: LC50 (the source's name)
[16] = read-out: pLC50 (the source's name) (converted)

## CC(=O)Nc1cc(CCl)cc(NC(=O)c2ccc(C(=O)Nc3cccc(NC(=O)CCCN(C)C)c3)cc2)c1
HL-60(TB)
  growth at 0.01 µM: 86%
RPMI-8226
  growth at 0.01 µM: 110%
SNB-75 [1]
  growth at 0.01 µM: 82%
LOX IMVI
  growth at 0.01 µM: 96%
M14
  growth at 0.01 µM: 108%
OVCAR-3 [2]
  growth at 0.01 µM: 112%
786-0
  growth at 0.01 µM: 106%
A498
  growth at 0.01 µM: 67%
ACHN
  growth at 0.01 µM: 105%
RXF 393 [3]
  growth at 0.01 µM: 96%
K562
  growth at 0.1 µM: 99%
NCI-H460 [4]
  growth at 0.1 µM: 106%
SNB-75 [5]
  growth at 0.1 µM: 77%
SK-MEL-28
  growth at 0.1 µM: 91%
UACC-62 [6]
  growth at 0.1 µM: 103%
DU-145
  growth at 0.1 µM: 106%
A549
  growth at 1 µM: 94%
UACC-62 [7]
  growth at 1 µM: 102%
OVCAR-8 [8]
  growth at 1 µM: 101%
UO-31
  growth at 1 µM: 97%
PC-3
  growth at 1 µM: 103%
NCI-H460 [9]
  growth at 100 µM: 99%
SK-MEL-5
  growth at 100 µM: 75%
UACC-257
  growth at 100 µM: 105%
OVCAR-8 [10]
  growth at 100 µM: 96%
TK-10
  growth at 100 µM: 129%
MCF7
  growth at 100 µM: 27%
Hs-578T [11]
  growth at 100 µM: 107%
SR; read-out: GI50
  GI50: > 100 µM
SR; [15]
  CC50: > 100 µM
SR; read-out: TGI
  TGI: > 100 µM
SR; read-out: pGI50 (converted)
  GI50: > 100 µM
SR; [16]
  CC50: > 100 µM
SR; read-out: pTGI
  TGI: > 100 µM
NCI-H522; read-out: GI50
  GI50: > 100 µM
NCI-H522; [15]
  CC50: > 100 µM
NCI-H522; read-out: TGI
  TGI: > 100 µM
NCI-H522; read-out: pGI50 (converted)
  GI50: > 100 µM
NCI-H522; [16]
  CC50: > 100 µM
NCI-H522; read-out: pTGI
  TGI: > 100 µM
OVCAR-3 [12]; read-out: GI50
  GI50: > 100 µM
OVCAR-3 [12]; read-out: LC50
  LC50 (50% lethal concentration): > 100 µM
OVCAR-3 [12]; read-out: TGI
  TGI: > 100 µM
OVCAR-3 [12]; read-out: pGI50 (converted)
  GI50: > 100 µM
OVCAR-3 [12]; read-out: pLC50 (converted)
  LC50 (50% lethal concentration): > 100 µM
OVCAR-3 [12]; read-out: pTGI
  TGI: > 100 µM
RXF 393 [13]; read-out: GI50
  GI50: > 100 µM
RXF 393 [13]; [15]
  CC50: > 100 µM
RXF 393 [13]; read-out: TGI
  TGI: > 100 µM
RXF 393 [13]; read-out: pGI50 (converted)
  GI50: > 100 µM
RXF 393 [13]; [16]
  CC50: > 100 µM
RXF 393 [13]; read-out: pTGI
  TGI: > 100 µM
Hs-578T [14]; read-out: GI50
  GI50: > 100 µM
Hs-578T [14]; [15]
  CC50: > 100 µM
Hs-578T [14]; read-out: TGI
  TGI: > 100 µM
Hs-578T [14]; read-out: pGI50 (converted)
  GI50: > 100 µM
Hs-578T [14]; [16]
  CC50: > 100 µM
Hs-578T [14]; read-out: pTGI
  TGI: > 100 µM
BT-549; read-out: GI50
  GI50: > 100 µM
BT-549; [15]
  CC50: > 100 µM
BT-549; read-out: TGI
  TGI: > 100 µM
BT-549; read-out: pGI50 (converted)
  GI50: > 100 µM
BT-549; [16]
  CC50: > 100 µM
BT-549; read-out: pTGI
  TGI: > 100 µM
T47D; read-out: GI50
  GI50: > 100 µM
T47D; [15]
  CC50: > 100 µM
T47D; read-out: TGI
  TGI: > 100 µM
T47D; read-out: pGI50 (converted)
  GI50: > 100 µM
T47D; [16]
  CC50: > 100 µM
T47D; read-out: pTGI
  TGI: > 100 µM
